Data set [1] is described as follows: Plasma protein binding (equilibrium dialysis). The following applies: mouse plasma. The format is in vitro ADME. The protocol: Plasma protein binding experiments: In brief, a 96-well equilibrium dialysis apparatus was used to determine the free fraction in plasma for each compound (HT Dialysis LLC, Gales Ferry, CT, USA). Membranes (12-14 kDa cutoff) were conditioned in deionised H2O for 60 min, followed by conditioning in 80:20 deionised H2O/EtOH for 20 min, and then rinsed in isotonic buffer before use. Female CD1 mouse plasma was removed from the freezer and allowed to thaw on the day of experiment. Thawed plasma was then centrifuged (Allegra […], Beckman Coulter, USA), spiked with test compound (10 μg g^-1), and 150 μL aliquots (n=6 replicate determinations) loaded into the 96-well equilibrium dialysis plate. Dialysis against isotonic buffer (150 μL) was carried out for 5 h in a temperature-controlled incubator at ∼37 °C (Barworld Scientific Ltd., UK) using an orbital microplate shaker at 125 rpm (Barworld Scientific). At the end of the incubation period, aliquots of plasma or buffer were transferred to micronic tubes (Micronic B.V., the Netherlands), and the composition in each tube was balanced with control fluid such that the volume of buffer to plasma is the same. Sample extraction was performed by the addition of 400 μL MeCN containing an appropriate internal standard. Samples were allowed to mix for 1 min and then centrifuged at 3000 rpm in 96-well blocks for 15 min (Allegra […], Beckman Coulter, USA). All samples were analysed by UPLC-MS/MS on a Quattro Premier XE Mass Spectrometer (Waters Corp.). The unbound fraction was determined as the ratio of the peak area in buffer to that in plasma.

Data set [2] deals with MRC5 cells (human lung fibroblasts). Nature of the data set: MRC5 proliferation assay. The format is cell-based. As to conditions: geometric mean of two or more determinations. The protocol: (§1) Trypanosome and MRC5 proliferation assay: Measurement of inhibition of the proliferation of MRC5 cells (human lung fibroblasts) and T. brucei bloodstream-stage cells was performed using a modification of a cell viability assay previously described.[35, 36] Compounds ([…] to 0.5 nM) were incubated with 2×10^3 cells per well in 0.2 mL of the appropriate culture medium (MEM with 10 % foetal bovine serum for MRC5 cells) in clear 96-well plates. Plates were incubated at 37 °C in the presence of 5 % CO2 for 69 h. Resazurin was then added to a final concentration of 50 μM, and plates were incubated as above for a further 4 h before being read on a BioTek Flx800 fluorescence plate reader.

Data set [3] can be described thus: In vivo pharmacokinetics in mice. Also on record: species or system female NMRI mice. The following applies: mouse, whole blood, ip, blood; for Tmax: female, NMRI; for AUC(0-t): read-out: AUC(0–8) (converted). The protocol:
In vivo pharmacokinetics in mice: Compounds 1 and 28 were dosed orally by gavage as a solution at 5 mg free base per kg or 20 mg free base per kg, respectively (dose volume: 5 or 10 mL kg^−1, dose vehicle: 5 % DMSO, 40 % PEG400, 55 % distilled H2O) to female NMRI mice (n=3). Compounds 28, 38, and 56 were dosed as a bolus solution intraperitoneally at 10 (56) or 20 (28 and 38) mg free base per kg (dose volume: 10 mL kg^−1, dose vehicle: 5 % DMSO, 40 % PEG400, 55 % sterile H2O) to female NMRI mice (n=3). Female NMRI mice were chosen, as these represent the sex and strain used for the stage-1 and stage-2 HAT efficacy models. Blood samples were taken from each mouse at 5 (i.p. only), 15 and 30 min, 1, 2, 4, 6 and 8 h post-dose and mixed with two volumes of distilled H2O. After suitable sample preparation, the concentration of each compound in blood was determined by UPLC–MS/MS using a Quattro Premier XE (Waters, USA). Pharmacokinetic parameters were derived from the mean blood concentration time curve using PKsolutions software ver. 2.0 (Summit Research Services, USA).

Data set [4] can be described thus: Intrinsic clearance in mouse liver microsomes. The format is in vitro ADME. The following applies: mouse hepatic microsomes, 0.5 μM compound. The protocol:
Intrinsic clearance experiments: Test compound (0.5 μM) was incubated with female CD1 mouse liver microsomes (Xenotech LLC; 0.5 mg mL^−1 50 mM potassium phosphate buffer, pH 7.4), and the reaction started with the addition of excess NADPH (8 mg mL^−1 50 mM potassium phosphate buffer, pH 7.4). Immediately, at t0, then at 3, 6, 9, 15, and 30 min an aliquot (50 μL) of the incubation mixture was removed and mixed with MeCN (100 μL) to stop the reaction. Internal standard was added to all samples, the samples were centrifuged to sediment precipitated protein, and the plates were then sealed prior to UPLC–MS/MS analysis using a Quattro Premier XE instrument (Waters Corp., USA). XLfit (IDBS, UK) was used to calculate the exponential decay and consequently the rate constant (k) from the ratio of peak area of test compound to internal standard at each time point. The rate of intrinsic clearance [CLint, mL min^−1 (g liver)^−1] of each test compound was then calculated with Equation (3): […]
in which V [mL (mg protein)^−1] is the incubation volume per mg protein added, and microsomal protein yield is taken as 52.5 mg protein per gram of liver. Verapamil (0.5 μM) was used as a positive control to confirm acceptable assay performance.

Data set [5] is described as follows: Kinetic aqueous solubility (laser nephelometry). The format is physicochemical. The following applies: Milli-Q water with 2.5% DMSO, kinetic from dmso stock, range 250–12 μM, read-out: Aq. Sol. (aqueous kinetic solubility). How it is done: Solubility experiments: The kinetic aqueous solubility of the test compounds was measured using laser nephelometry. Compounds were subject to serial dilution from 10 mM to 0.5 mM in DMSO. An aliquot was then mixed with Milli-Q H2O to obtain an aqueous dilution plate with a final concentration range of 250–12 μM, with a final DMSO concentration of 2.5 %. Triplicate aliquots were transferred to a flat-bottomed polystyrene plate which was immediately read on the NEPHELOstar (BMG Lab Technologies). The amount of laser scatter caused by insoluble particulates (relative nephelometry units, RNU) was plotted against compound concentration using a segmental regression fit, with the point of inflection being quoted as the compounds′ aqueous solubility (in μM).

In data set [6] the test system is T. b. brucei. Nature of the data set: Trypanosome proliferation assay. The format is cell-based, Trypanosoma brucei brucei. As to conditions: geometric mean of two or more determinations, standard cell viability (resazurin) assay, read-out: EC50 T. b. brucei. The protocol:
as §1

In data set [7] the test system is T. brucei bloodstream-stage cells. Nature of the data set: Static–cidal (SC) assay. The format is cell-based, Trypanosoma brucei brucei. The following applies: for pEC50: 48 h. How it is done: Determination of cidality against T. brucei bloodstream-stage cells was performed using a static–cidal (SC) assay as previously reported.[26] Briefly, bloodstream-form trypanosomes were seeded into 384-well plates at 4×10^5 mL^−1 (50 μL per well), followed by immediate addition of resazurin (50 μM final) to one of the plates, and all plates were incubated at 37 °C, 5 % CO2. After 4 h the t0 plate was read using a PerkinElmer Victor 3 plate reader (λex=528 nm, λem=590 nm). The second plate was processed in the same manner 20 h later, and at 44 h the last plate was processed. The minimum cidal concentration (MCC) is defined as the lowest concentration of drug that results in a decrease of resorufin signal over time. For dose–response curves from this assay either a monophasic or a biphasic equation was used, depending on which one provided the best fit. For monophasic fits, the following four-parametric equation [Eq. (1)] was used:
in which A=percent inhibition at bottom, B=percent inhibition at top, C=EC50, D=slope, x=inhibitor concentration, and y=percent inhibition. Equation (2) was used for biphasic fits:
for which A=percent inhibition at mid-plateau, B=slope, C=log[SC EC50(1)], D=log[SC EC50(2)]. Thus SC EC50(1) is the EC50 for the first phase of the curve, and SC EC50(2) is that for the second phase. Inhibition at the bottom of the curve is fixed at 0 % and at the top, 100 %.

pEC50: −log10 of the molar value. In brackets after ≈: the same amount, converted by molar mass. Like-named read-outs stand apart in the source and are kept apart here. Bounds are passed on as bounds.

Take `O=c1[nH]c2ncc(-c3ccccc3)nc2n1C1CCOCC1` [Compound 38]: the “protein binding (unbound)” value in data set [1] came out at 15 % unbound. For the same compound, the pEC50 in data set [2] is below 4.30. In addition, the Tmax in data set [3] (20 mg/kg, 20 mg kg^−1, female NMRI mice) was found to be 2 h. Moreover, in data set [3] (20 mg kg^−1, female NMRI mice), the Cmax came out at 83 ng/mL, the half-life is 2.2 h and the AUC(0-t) is 367 ng·h/mL. In data set [4], the CLint is 1.6 mL/min/g. Moreover, the solubility (kinetic) in data set [5] stood at 55 µM (≈ 16.3 µg/mL). For the same compound, the pEC50 in data set [6] (Trypanosoma brucei) was 7.00.

On to `O=c1[nH]c2ncc(N3CCCCC3)cc2n1C1CCCCC1` [Compound 56], for which the pEC50 in data set [7] (Trypanosoma brucei, static cidal EC50, first site/phase, read-out: SC EC50(1)) is 7.15; in data set [7] (Trypanosoma brucei, static cidal EC50, second site/phase, read-out: SC EC50(2)), below 4.30; in data set [2], below 4.30; in data set [6] (Trypanosoma brucei), 7.03; in data set [6] it was 7.05. For the same compound, in data set [7] (Trypanosoma brucei, static–cidal assay in triplicate, read-out: MCC (minimal cidal concentration)), the MCC is above 50 µM. For the same compound, the “mode of antiparasitic effect (in words)” value in data set [7] (text and figure legend, at concentrations tested) is “growth-slowing or static behaviour”. Further, the fraction unbound at 5 h, 10 μg g^−1 in data set [1] (female, CD1, equilibrium dialysis, read-out: PPB) was found to be 0.11. In addition, in data set [3] (10 mg/kg, 10 mg kg^−1, female NMRI mice), the Tmax turned out to be 0.25 h. The compound also displayed a Cmax in data set [3] (10 mg kg^−1, female NMRI mice) of 580 ng/mL. This compound had a half-life in data set [3] (10 mg kg^−1, female NMRI mice) of 0.7 h. Further, in data set [3] (10 mg kg^−1, female NMRI mice), the AUC(0-t) was 883 ng·h/mL. In data set [4], this compound returned a CLint of 3.6 mL/min/g. Besides, in data set [5], the kinetic solubility is above 250 µM.

Source of the values: PMC4648050, “Discovery of Inhibitors of Trypanosoma brucei by Phenotypic Screening of a Focused Protein Kinase Library” (Chemmedchem, 2015).
